Our source for the TGI values is PubChem BioAssay (NCI).

Test systems include MOLT-4 leukemia; OVCAR-4 ovarian; DLD-1 colon; DMS 114 small cell lung; SNB-75 CNS; UO-31 renal; SK-MEL-5 melanoma; SW-620 colon; HOP-92 NSCLC; OVCAR-5 ovarian; SF-295 CNS.
What all share (assay): inhibition of tumour cell growth, NCI panel, 48 h

The structures appear in SMILES notation.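 Cells were grown in 96-well plates and exposed to each compound for 48 hours at five concentrations; endpoints were interpolated linearly between bracketing concentrations, or set to the highest concentration if not reached. TGI marks complete inhibition of growth.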

Regarding `Nc1ccc(-c2cc(C(=O)Nc3nccs3)[nH]c(=S)n2)cc1`, the TGI in the test with MOLT-4 leukemia, in the test on OVCAR-4 ovarian, with DLD-1 colon, with DMS 114 small cell lung, in the test with SNB-75 CNS and with UO-31 renal was greater than 100 µM throughout. The TGI with SK-MEL-5 melanoma, in the test on SW-620 colon, in the test on HOP-92 NSCLC and with OVCAR-5 ovarian was greater than 100 µM each time.

For `C[P+](C)(C)C`, the TGI with MOLT-4 leukemia, in the test with OVCAR-4 ovarian, in the test with DLD-1 colon, with DMS 114 small cell lung, with SNB-75 CNS and in the test on UO-31 renal was greater than 100 µM throughout. For the same molecule, the TGI in the test with SF-295 CNS, in the test with SK-MEL-5 melanoma, in the test with SW-620 colon, in the test on HOP-92 NSCLC and in the test on OVCAR-5 ovarian was greater than 100 µM throughout.

With `c1ccc(CN2CCc3[nH]c4ccccc4c3C2)cc1`, the TGI with MOLT-4 leukemia is 66.1 µM; in the test on OVCAR-4 ovarian, 84.4 µM; in the test with DLD-1 colon, greater than 100 µM; with DMS 114 small cell lung, 47.3 µM; with SNB-75 CNS, greater than 100 µM; in the test with UO-31 renal it was 79.2 µM. Also, the TGI in the test on SF-295 CNS was 65.9 µM; in the test on SK-MEL-5 melanoma, 31.3 µM; in the test on SW-620 colon it was 50 µM; with HOP-92 NSCLC, 62.1 µM; with OVCAR-5 ovarian, greater than 96.3 µM.

Regarding `CC(C)c1ccc(C2NC(=S)NC3=C2c2ccccc2C3=O)cc1` (stereo not drawn), the TGI in the test on MOLT-4 leukemia is greater than 65 µM; in the test on OVCAR-4 ovarian it was 53.8 µM; with DLD-1 colon it was greater than 100 µM; with DMS 114 small cell lung, 58.8 µM; with SNB-75 CNS it was 36.7 µM; with UO-31 renal, greater than 58.2 µM. Also, the TGI in the test with SF-295 CNS was greater than 52.4 µM; with SK-MEL-5 melanoma, 52.8 µM; with SW-620 colon it was greater than 78.2 µM; with HOP-92 NSCLC, 48.3 µM; in the test on OVCAR-5 ovarian it was greater than 64.2 µM.

Turning to `Cc1ccc(S(=O)(=O)N/N=C(\c2nc3ccc([N+](=O)[O-])cc3[nH]c2=O)C(O)c2ccc([N+](=O)[O-])cc2)cc1` (stereo not drawn), the TGI in the test on MOLT-4 leukemia, in the test with OVCAR-4 ovarian, in the test on DLD-1 colon, in the test on DMS 114 small cell lung, in the test with SNB-75 CNS and with UO-31 renal was greater than 100 µM each time. Besides, the TGI in the test on SF-295 CNS, in the test on SK-MEL-5 melanoma, with SW-620 colon, in the test with HOP-92 NSCLC and with OVCAR-5 ovarian was greater than 100 µM in each case.

Take `N#Cc1ccc(/C=C(/C(=O)c2ccccc2)c2ccccc2)cc1`: the TGI with MOLT-4 leukemia is 10.4 µM; with OVCAR-4 ovarian, 26.9 µM; with DLD-1 colon, 13 µM; in the test on DMS 114 small cell lung, 31.5 µM; in the test with SNB-75 CNS, greater than 57.2 µM; in the test with UO-31 renal, 28.9 µM. Moreover, the TGI in the test on SF-295 CNS is 35.2 µM; in the test with SK-MEL-5 melanoma, 26.8 µM; in the test on SW-620 colon, 7.31 µM; with HOP-92 NSCLC, 39.7 µM; in the test on OVCAR-5 ovarian, 35.4 µM.

As to `CC[C@@]1(OC(=O)C(N)CCCCN)C(=O)OCc2c1cc1n(c2=O)Cc2cc3ccccc3nc2-1` (stereo partly drawn), the TGI with MOLT-4 leukemia was 0.13 µM; in the test with OVCAR-4 ovarian, 2.84 µM; in the test on DLD-1 colon, greater than 27.1 µM; in the test with DMS 114 small cell lung, 0.263 µM; in the test with SNB-75 CNS, 0.609 µM; with UO-31 renal it was 0.148 µM. The TGI was 0.813 µM in the test with SF-295 CNS; 0.184 µM with SK-MEL-5 melanoma; greater than 28.7 µM with SW-620 colon; 1.72 µM in the test on HOP-92 NSCLC; 3.86 µM with OVCAR-5 ovarian.

For the molecule `CCOC(=O)C1C=C2O[C@@H]3OC4(CCCCC4)O[C@@H]3C2C2C(=O)CCC(=O)[C@@]12C(=O)OC` (stereo partly drawn), the TGI in the test on MOLT-4 leukemia, with OVCAR-4 ovarian, with DLD-1 colon, in the test with DMS 114 small cell lung, in the test with SNB-75 CNS and in the test with UO-31 renal was greater than 100 µM each time. The TGI in the test with SF-295 CNS, in the test on SK-MEL-5 melanoma, in the test with SW-620 colon, in the test with HOP-92 NSCLC and in the test on OVCAR-5 ovarian was greater than 100 µM in each case.

As to `Cc1ccc(S(=O)(=O)NC(=O)NCCc2ccccc2)cc1`, the TGI with MOLT-4 leukemia, in the test with OVCAR-4 ovarian, with DLD-1 colon, with DMS 114 small cell lung, in the test on SNB-75 CNS and in the test on UO-31 renal was greater than 100 µM throughout. Moreover, the TGI in the test with SF-295 CNS, in the test with SK-MEL-5 melanoma, in the test with SW-620 colon, with HOP-92 NSCLC and with OVCAR-5 ovarian was greater than 100 µM in each case.

`O=C1N2Cc3c4ccc5c3CN3C(=O)N6Cc7c(ccc(c7CN1C6(c1ccccc1)C23c1ccccc1)OCCOCCOc1cc(Br)c(Br)cc1OCCOCCO4)OCCOCCOc1cc(Br)c(Br)cc1OCCOCCO5` (stereo not drawn): the TGI is greater than 100 µM in the test with MOLT-4 leukemia; greater than 100 µM with OVCAR-4 ovarian; 42.1 µM in the test on DLD-1 colon; greater than 100 µM with DMS 114 small cell lung; greater than 100 µM in the test on SNB-75 CNS; greater than 100 µM in the test with UO-31 renal. The TGI was greater than 100 µM in the test on SK-MEL-5 melanoma, 28.3 µM in the test on SW-620 colon and 90 µM with HOP-92 NSCLC.

For `O=[P+](O)c1ccccn1`, the TGI in the test on MOLT-4 leukemia, with OVCAR-4 ovarian, in the test on DLD-1 colon, in the test on DMS 114 small cell lung, in the test with SNB-75 CNS and with UO-31 renal was greater than 100 µM throughout. Moreover, the TGI with SF-295 CNS, in the test with SK-MEL-5 melanoma, with SW-620 colon, in the test with HOP-92 NSCLC and in the test on OVCAR-5 ovarian was greater than 100 µM throughout.
